Measured values as given in patent US10844054B2, “Compounds for pain treatment, compositions comprising same, and methods of using same” (CERSCI THERAPEUTICS, INC., priority 2018, dated 2020).
Where two headings read alike, the source gives them in different places.

Columns and labels:
[1] = Inhibition of SIN1-mediated peroxynitrite oxidation of luminol (L-012 assay); assay type: biochemical; settings: for Peroxynitrite gen (% control, 10 μM): compound at 10 μM, SIN-1 100 μM, L-012, PBS pH 8.5
Protocol: Luminol-like compounds such as L-012 are chemilumescent probes that are oxidized by the presence of ROS and RNS such as peroxynitrite. In this assay L-012 is oxidized by the addition of 3-morpholino-sydnonimine (SIN-1), a known peroxynitrite generator. The emitted luminescence is directly proportional to the concentration of SIN-1. The compounds were assessed for their ability to neutralize/scavenge/decompose peroxynitrite by blocking the increase of peroxynitrite induced chemilumescence. Concentrations of compound producing 50% inhibition of the luminescence signal (IC50 values) were calculated by testing the compounds at various concentrations of two parallel measurements.
Stock solution (10 mM) of compounds were prepared in 100% DMSO.
The following solutions were added to white polystyrene, non-sterile 96-well plate (Thermo Scientifi NUNC™ 96 MICROWELL™ White Polystyrene Plates #447796): • 10 μL SIN-1 2 mM in 100% DMSO solution (SIN-1 final concentration 100 DMSO final volume—5%); • 190 μL L012+/−test compound in phosphate-buffered solution (PBS, pH=8.5) (L012 final concentration 100 μM).
Luminescence signal was recorded by Hidex Sense multimodal microplate reader (Hidex) at 30° C. for 30 min, with a measurement every 60 sec and an integration time of 1 sec.
IC50 values were calculated using two different methods; first by measuring the slopes of the steepest linear portion of the kinetic profile during the first 5 min (as % from control) and secondly, by measuring the maximal luminiscence at 30 min time point (as % from control). IC50 values of the tested compounds were calculated using GraphPad Prism 5.0 software package.

[2] = tested on: carrageenan-induced thermal hyperalgesia and edema; test: Intraplantar carrageenan model of acute inflammatory pain (Hargreaves test, paw volume); assay type: in vivo, rat; settings: 30 mg/kg p.o., dosed preemptively, assessed 4 h post-carrageenan
Protocol: The intraplantar carrageenan model of acute inflammatory pain in the rat results in behaviors similar to that observed in patients and has been widely used to assess novel pharmacological treatments (Whiteside, et al., 2005, J. Pharmacol. Exp. Ther. 314:1234-1240).
For this assay, paw withdrawal latency to a thermal stimulus was assessed using a radiant heat source (Ugo Basile, Italy) aimed at the plantar surface of the left hind paw (Hargreaves test). A cut-off latency of 40 sec is set to avoid tissue damage. Paw volume was measured by displacement of water and assuming a tissue density equal to that of water. Baseline latencies were taken prior to carrageenan administration and re-assessed 4 h later. Compounds of the invention or vehicle were administered (10 and 30 mg/kg, p.o.) 3 h after carrageenan (curative) and behavior assessed 1 h later. Additionally, compounds of the invention were administered 15 minutes prior to carrageenan (preemptive) and behavior assessed 4 h post carrageenan. Indomethacin (positive control, 30 mg/kg p.o.) was administered prior to carrageenan and behavior assessed 4 h post-carrageenan.
Intraplantar injection of carrageenan was performed under 2.5-4.0% isoflurane/O2 anesthesia, delivered via nose cone. After induction of anesthesia, the injection site was prepared in a sterile manner and 50 μL of a 2% λ-carrageenan was injected. […]

[3] = tested on: latency to fall from rotarod; test: Accelerating rotarod assay of ataxia; assay type: in vivo, rat; settings: 3 mg/kg p.o., 1 h post-administration
Protocol: Ataxia is a common clinical problem with CNS-active compounds and can often confound interpretation of efficacy in preclinical pain models. The rotarod assay of ataxia has been widely used to assess the side-effect liability of novel pharmacological treatments (Jones & Roberts, 1968, J. Pharm. Pharmacol. 20:302-04).
The effect of compounds of the invention to impact latency to fall in an accelerating rotarod assay of ataxia in rats was evaluated. The positive control was haloperidol (Sigma, St. Louis), and the negative control was vehicle (which was hydroxypropylmethyl-cellulose and 15% DMA, 65% PEG300, and 20% D5W for haloperidol).
Male Sprague-Dawley Rats (Harlan, Ill.) were 250-300 g at time of dosing. Rotarod was obtained from IITC, CA. To examine the potential effects of compounds of the invention on motor performance, rats were tested on an accelerating rotarod (IITC, Ca). In this assay, rats were placed on the rotarod with the speed set to accelerate from 4 to 40 rpm over 300 sec. The maximum time spent on the rotarod was set at 300 seconds. Rats received two timed training trials (averaged to give the reported baseline) on the first day, then 24 h later rats were administered compound of the invention (30, 100 and 300 mg/kg, p.o.), haloperidol (3 mg/kg, p.o.) or vehicle.

[4] = tested on: nerve injury induced tactile allodynia; test: Rat spinal nerve ligation (SNL) model, tactile allodynia (von Frey); assay type: in vivo; settings: 100 mg/kg i.p.
Protocol: The spinal nerve ligation (SNL) model of neuropathic pain in the rat results in behaviors similar to that observed in patients (Kim & Chung, 1992, Pain 50(3):355-63) and has been widely used to assess novel pharmacological treatments (Sindrup & Jensen, 1999, Pain 83(3):389-400). Compounds of the invention were evaluated for its ability to reverse or prevent development of tactile allodynia in a rat model of neuropathic pain.
The positive control was gabapentin (Toronto Research Chemicals, Canada). The negative control was vehicle (0.5% methyl cellulose; 2-hydroxy-propyl-beta-cyclodextrin). Male Sprague-Dawley Rats (Harlan, 11) were 250-300 g at time of dosing. […]
The effect of compounds of the invention on nerve injury induced tactile allodynia was investigated using von Frey filaments 1-3 weeks after tight ligation of the LS spinal nerve. Tactile thresholds were assessed using a series of calibrated von Frey monofilaments (Stoelting, Wood Dale, Ill.). Assessment of tactile allodynia was measured as the hind paw-withdrawal threshold that produced a 50% likelihood of a withdrawal using the up-down method. Thresholds were evaluated before surgery, and they were reassessed 1-3 weeks after SNL surgery. […] Tactile thresholds were again assessed either 1 and 3 h, 3 and 5 h or once weekly after administration. […]

[5] = from maximal luminescence at 30 min time point, read-out: IC50 (μM) (% luminol absorb. @ 30 min)
[6] = from slopes of steepest linear portion of kinetic profile during first 5 min, read-out: IC50 (μM) (% PN gen)

## Cl.O=C(O)[C@@H]1CSC(Nc2ncccc2O)=N1 [Compound 7a, (R)-2-((3-hydroxypyridin-2-yl)amino)-4,5-dihydrothiazole-4-carboxylic acid hydrochloride]
[1]
  Peroxynitrite gen (% control, 10 μM): 0 % control
[1]; [5]
  IC50: 1.8 µM
[1]; [6]
  IC50: 0.17 µM

## CC1(C)SC(Nc2ncccc2O)=N[C@H]1C(=O)O.Cl [Compound 5a, (S)-2-(3-Hydroxy-pyridin-2-ylamino)-5,5-dimethyl-4,5-dihydro-thiazole-4-carboxylic acid hydrochloride]
[1]
  Peroxynitrite gen (% control, 10 μM): 0 % control
[1]; [5]
  IC50: 1.6 µM
[1]; [6]
  IC50: 0.17 µM

## Cl.O=C(O)[C@H]1CSC(Nc2ncccc2O)=N1 [Compound 8a, (S)-2-((3-hydroxypyridin-2-yl)amino)-4,5-dihydrothiazole-4-carboxylic acid hydrochloride]
[1]
  Peroxynitrite gen (% control, 10 μM): 0 % control
[1]; [5]
  IC50: 2.1 µM
[1]; [6]
  IC50: 0.23 µM

## CC1(C)SC(Nc2cccnc2O)=N[C@H]1C(=O)O.Cl [Compound 23a, (S)-2-((2-Hydroxypyridin-3-yl)amino)-5,5-dimethyl-4,5-dihydrothiazole-4-carboxylic acid hydrochloride]
[1]
  Peroxynitrite gen (% control, 10 μM): 67 % control
[1]; [5]
  IC50: > 10 µM
[1]; [6]
  IC50: > 10 µM

## CC1(C)SC(Nc2cnccc2O)=N[C@@H]1C(=O)O.Cl [Compound 12a, (R)-2-((4-Hydroxypyridin-3-yl)amino)-5,5-dimethyl-4,5-dihydrothiazole-4-carboxylic acid hydrochloride]
[1]
  Peroxynitrite gen (% control, 10 μM): 82 % control
[1]; [5]
  IC50: > 10 µM
[1]; [6]
  IC50: > 10 µM

## COc1ccc2c(c1)c(CC(=O)O)c(C)n2C(=O)c1ccc(Cl)cc1 [indomethacin]
[2]
  prevention of carrageenan-induced edema (paw volume): statistically significant prevention
  prevention of carrageenan-induced thermal hyperalgesia: statistically significant prevention

## Cl.O=C(O)[C@@H]1CSC(Nc2ccncc2O)=N1 [Compound 27a, (R)-2-(3-Hydroxy-pyridin-4-ylamino)-4,5-dihydro-thiazole-4-carboxylic acid hydrochloride]
[1]
  Peroxynitrite gen (% control, 10 μM): 61 % control
[1]; [5]
  IC50: > 10 µM
[1]; [6]
  IC50: > 10 µM

## CC1(C)SC(Nc2ccncc2O)=N[C@H]1C(=O)O.Cl [Compound 18a, (S)-2-((3-Hydroxypyridin-4-yl)amino)-5,5-dimethyl-4,5-dihydrothiazole-4-carboxylic acid hydrochloride]
[1]
  Peroxynitrite gen (% control, 10 μM): 77 % control
[1]; [5]
  IC50: > 10 µM
[1]; [6]
  IC50: > 10 µM

## CC1(C)SC(Nc2ncccc2O)=N[C@@H]1C(=O)O.Cl [Compound 4a, (R)-2-(3-Hydroxy-pyridin-2-ylamino)-5,5-dimethyl-4,5-dihydro-thiazole-4-carboxylic acid hydrochloride]
[1]
  Peroxynitrite gen (% control, 10 μM): 0 % control
[1]; [5]
  IC50: 1.8 µM
[1]; [6]
  IC50: 0.26 µM

## O=C(CCCN1CCC(O)(c2ccc(Cl)cc2)CC1)c1ccc(F)cc1 [haloperidol]
[3]
  motor performance / latency to fall in rotarod: significant motor deficits

## Cl.O=C(O)[C@@H]1CSC(Nc2cnccc2O)=N1 [Compound 25a, (R)-2-((4-Hydroxypyridin-3-yl)amino)-4,5-dihydrothiazole-4-carboxylic acid hydrochloride]
[1]
  Peroxynitrite gen (% control, 10 μM): 111 % control
[1]; [5]
  IC50: > 10 µM
[1]; [6]
  IC50: > 10 µM

## CC1(C)SC(Nc2cccnc2O)=N[C@@H]1C(=O)O.Cl [Compound 22a, (R)-2-((2-Hydroxypyridin-3-yl)amino)-5,5-dimethyl-4,5-dihydrothiazole-4-carboxylic acid hydrochloride]
[1]
  Peroxynitrite gen (% control, 10 μM): 96 % control
[1]; [5]
  IC50: > 10 µM
[1]; [6]
  IC50: > 10 µM

## CC1(C)SC(Nc2ccncc2O)=N[C@@H]1C(=O)O.Cl [Compound 17a, (R)-2-((3-Hydroxypyridin-4-yl)amino)-5,5-dimethyl-4,5-dihydrothiazole-4-carboxylic acid hydrochloride]
[1]
  Peroxynitrite gen (% control, 10 μM): 75 % control
[1]; [5]
  IC50: > 10 µM
[1]; [6]
  IC50: > 10 µM

## NCC1(CC(=O)O)CCCCC1 [gabapentin]
[4]
  reversal of tactile allodynia: statistically significant reversal of allodynia
